The text below walks through data of US20140128352A1, “COMPOUNDS AND METHODS FOR MODULATING MITOCHONDRIAL METABOLISM AND REACTIVE OXYGEN SPECIES PRODUCTION” (Buck Institute for Research on Aging, priority 2012, published 2014).

Experiment [1] deals with T1, succinate dehydrogenase/complex II (SDH) (Rattus norvegicus, UniProt P21913+Q641Z9+Q6PCT8+Q920L2).
T1 construct: freshly isolated muscle mitochondria were assayed; from tissue; host or cells: rat skeletal muscle mitochondria (Wistar, Harlan Laboratories)
T1 sequence (Q920L2 35-656): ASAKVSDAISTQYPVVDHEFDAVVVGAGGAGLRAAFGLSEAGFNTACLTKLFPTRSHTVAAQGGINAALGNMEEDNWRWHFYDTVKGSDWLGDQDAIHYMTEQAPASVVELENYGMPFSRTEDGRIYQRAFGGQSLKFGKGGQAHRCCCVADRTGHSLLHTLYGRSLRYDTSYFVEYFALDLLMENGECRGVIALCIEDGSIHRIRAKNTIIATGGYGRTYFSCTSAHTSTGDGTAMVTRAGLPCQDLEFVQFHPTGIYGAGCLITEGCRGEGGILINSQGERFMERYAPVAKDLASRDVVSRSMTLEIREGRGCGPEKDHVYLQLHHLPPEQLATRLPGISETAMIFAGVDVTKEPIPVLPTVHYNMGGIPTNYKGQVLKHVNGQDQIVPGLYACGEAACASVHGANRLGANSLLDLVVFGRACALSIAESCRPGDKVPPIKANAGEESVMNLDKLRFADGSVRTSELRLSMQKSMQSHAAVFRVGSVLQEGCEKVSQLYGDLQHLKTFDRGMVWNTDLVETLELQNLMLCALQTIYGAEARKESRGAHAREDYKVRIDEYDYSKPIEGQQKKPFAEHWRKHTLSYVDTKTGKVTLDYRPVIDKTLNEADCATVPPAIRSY
T1 sequence (P21913 31-282): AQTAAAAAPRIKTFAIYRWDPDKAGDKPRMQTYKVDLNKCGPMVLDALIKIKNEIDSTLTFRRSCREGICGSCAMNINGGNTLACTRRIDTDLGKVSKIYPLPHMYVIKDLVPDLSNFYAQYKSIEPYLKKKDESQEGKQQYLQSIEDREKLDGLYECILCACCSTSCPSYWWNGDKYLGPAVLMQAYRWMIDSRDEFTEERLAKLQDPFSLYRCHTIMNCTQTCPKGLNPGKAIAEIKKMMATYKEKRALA
T1 sequence (Q641Z9 30-169 limits assumed): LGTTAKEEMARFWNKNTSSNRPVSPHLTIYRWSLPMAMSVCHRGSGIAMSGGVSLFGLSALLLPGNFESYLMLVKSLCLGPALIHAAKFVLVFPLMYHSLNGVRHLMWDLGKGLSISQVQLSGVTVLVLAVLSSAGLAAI
T1 sequence (Q6PCT8 57-159): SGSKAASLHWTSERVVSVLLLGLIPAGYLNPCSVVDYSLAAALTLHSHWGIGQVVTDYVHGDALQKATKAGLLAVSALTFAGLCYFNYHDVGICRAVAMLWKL
The experiment in a line: High-throughput screen: ROS production from succinate dehydrogenase/complex II (SDH). Conditions: percent change in ROS from DMSO controls. The format is biochemical.

Experiment [2] deals with T2, outer ubiquinone binding site of complex III (IIIQO) (Rattus norvegicus, UniProt P00159+P20788).
T2 construct: freshly isolated muscle mitochondria were assayed; from tissue; host or cells: rat skeletal muscle mitochondria (Wistar, Harlan Laboratories)
The experiment is described as follows: High-throughput screen: ROS production from outer ubiquinone binding site of complex III (IIIQO). The experiment is classed as biochemical. The settings on record: percent change in ROS from DMSO controls.

In experiment [3] the target is T3, glycerol-3-phosphate dehydrogenase (GPDH) (Rattus norvegicus, UniProt P35571).
T3 construct: The activity of GPDH in intact mitochondria (0.3 mg/mL) was measured; from tissue; host or cells: rat skeletal muscle mitochondria (Wistar, Harlan Laboratories)
T3 sequence (P35571 43-727): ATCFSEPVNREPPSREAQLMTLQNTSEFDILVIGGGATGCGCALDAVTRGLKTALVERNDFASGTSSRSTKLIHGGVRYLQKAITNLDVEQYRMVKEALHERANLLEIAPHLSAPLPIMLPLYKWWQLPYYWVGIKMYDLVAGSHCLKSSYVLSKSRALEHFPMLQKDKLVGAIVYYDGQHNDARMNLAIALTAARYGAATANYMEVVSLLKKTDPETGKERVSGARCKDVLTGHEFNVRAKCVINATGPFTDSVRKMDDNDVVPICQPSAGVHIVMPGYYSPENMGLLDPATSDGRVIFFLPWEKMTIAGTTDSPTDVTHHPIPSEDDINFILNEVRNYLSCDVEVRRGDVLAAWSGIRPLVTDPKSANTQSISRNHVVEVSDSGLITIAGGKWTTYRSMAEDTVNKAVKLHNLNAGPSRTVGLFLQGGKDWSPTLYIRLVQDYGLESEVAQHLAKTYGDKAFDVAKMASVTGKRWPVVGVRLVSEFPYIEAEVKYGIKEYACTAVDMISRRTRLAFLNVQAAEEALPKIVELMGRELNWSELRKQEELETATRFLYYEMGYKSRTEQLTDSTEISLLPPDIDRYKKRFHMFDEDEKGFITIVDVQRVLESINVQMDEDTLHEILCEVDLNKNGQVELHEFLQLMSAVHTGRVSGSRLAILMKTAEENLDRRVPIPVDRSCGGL
The experiment in a line: High-throughput screen: ROS production from glycerol-3-phosphate dehydrogenase (GPDH). The settings on record: percent change in ROS from DMSO controls. The format is biochemical. Details: inhibition: dose or concentration left out as unconfirmed.

Experiment [4] concerns mitochondrial membrane potential (ΔΨm). The experiment in a line: Membrane potential (ΔΨm) counterscreen with TMRM. Conditions: malate, nigericin.
For experiment [5], the system named is ubiquinone binding site of complex I (IQ). The experiment in a line: High-throughput screen: ROS production from ubiquinone binding site of complex I (IQ), isolated skeletal muscle mitochondria. The format is biochemical, rat. Conditions: for IQ: percent change in ROS from DMSO controls; for % Reduction in ROS production (IQ): Table 2, 5 mM succinate, compounds 2.5 μM, percent change from DMSO, positive control −100%.
Protocol: Skeletal muscle mitochondria were isolated from 5-8 week old female Wistar rats (Harlan Laboratories). Minced muscle was homogenized in buffer containing bacterial protease Type VIII prior to differential centrifugation to separate mitochondria from other tissue components. Unless otherwise stated, freshly isolated muscle mitochondria were assayed in buffer containing 120 mM KCl, 5 mM HEPES, 1 mM EGTA, 0.3% (w/v) bovine serum albumin. Where indicated, CaCl2 was added to yield a final free concentration of 250 nM calcium at pH 7.0 at 37° C.
Compounds (10 mM in DMSO) were randomly selected from a library of 24,000 compounds obtained from ChemBridge and curated by the lab of Robert Hughes at the Buck Institute. Master screening plates were prepared using a Biomek FX liquid handling workstation (Beckman) to transfer 1 μL of each compound into individual wells on 96-well storage plates (80 compounds per plate). Master plates were sealed with foil and stored at −80° C. Just prior to use, plates were brought to room temperature and diluted 300-fold with standard buffer (13.3X=33.3 μM). To monitor the performance of each assay throughout screening and to provide intra-plate normalization reference points, DMSO negative controls and known mitochondrial inhibitor positive controls were included on each Master compound plate.
Total amounts of superoxide and H2O2 production were determined fluorometrically as H2O2, without distinguishing between them, in the presence of exogenous superoxide dismutase (25 units/mL final), horseradish peroxidase (1 unit/mL final), and Amplex UltraRed (25 μM final) as described (Affourtit, C. et al. (2012) Measurement of proton leak and electron leak in isolated mitochondria. Methods Mol. Biol. 810: 165-82). Just prior to use, a bulk 3.3X solution was made in standard buffer and distributed into a 2 mL deep well 96-well transfer plate.
To assess the effects of a compound on ROS production from the ubiquinone binding site of complex I (IQ), Start Solution containing 5 mM succinate was distributed into standard 96-well transfer plates. A Biomek FX workstation was programmed to dispense solutions into black 96-well assay plates. Solutions were dispensed to all assay plates in the following order: ROS Detection solution described in Example 3, Mitochondria solution described in Example 1 to a final concentration of 0.1 mg/ml, and Compound dilutions described in Example 2. Duplicate assay plates were made and each was initiated by the addition of 3.3X Start solution containing 5 mM succinate. Plates were incubated in the dark at room temperature for 30-40 minutes before acquiring endpoint fluorescence using a Victor 3V plate reader (Perkin Elmer) equipped with 550/590 nm excitation/emission filters.
The fluorescence values in each well were scaled as the percent change from the intra-plate DMSO controls with the appropriate inhibitor positive controls defined as −100%. Following initial scaling, intra-plate normalized values were subjected to Tukey's two-way median polish to remove row and column dependent positional effects (Malo et al, 2006).

In experiment [6] the target is T4, flavin binding site of complex I (IF) (Rattus norvegicus, UniProt Q5XIH3).
T4 construct: freshly isolated muscle mitochondria were assayed; from tissue; host or cells: rat skeletal muscle mitochondria (Wistar, Harlan Laboratories)
T4 sequence (Q5XIH3 21-464 limits assumed, one chain of several): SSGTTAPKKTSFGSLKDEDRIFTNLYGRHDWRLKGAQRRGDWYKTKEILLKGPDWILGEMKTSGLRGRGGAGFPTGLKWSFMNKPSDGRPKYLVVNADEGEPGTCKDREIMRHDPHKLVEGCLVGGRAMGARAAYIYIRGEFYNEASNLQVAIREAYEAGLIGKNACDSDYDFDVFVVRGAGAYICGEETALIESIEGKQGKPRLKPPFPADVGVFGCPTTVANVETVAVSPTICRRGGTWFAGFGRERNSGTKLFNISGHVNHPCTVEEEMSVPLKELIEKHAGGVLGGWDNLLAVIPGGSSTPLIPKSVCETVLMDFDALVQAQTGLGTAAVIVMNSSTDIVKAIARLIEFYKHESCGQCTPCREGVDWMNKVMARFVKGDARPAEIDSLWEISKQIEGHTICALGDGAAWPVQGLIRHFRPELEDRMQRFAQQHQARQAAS
The experiment in a line: High-throughput screen: ROS production from flavin binding site of complex I (IF). The experiment is classed as biochemical.

Where [7] appears, read: Table 7, percent change in ROS from DMSO controls, read-out: IF.
Where [8] appears, read: Table 8, percent change in ROS from DMSO controls.
Setting [9] is: Table 9, percent change in ROS from DMSO controls.
The mark [10] stands for this setting: Table 3, 5 mM glutamate, 5 mM malate, 4 μM rotenone, compounds 2.5 μM, percent change from DMSO, positive control −100%, read-out: % Reduction in ROS production (IF).

Molecules are shown by their SMILES. Where two headings read alike, the source gives them in different places.

`Cl.OC12CCCCC1C(c1cccc(Cl)c1)NCC2` (centres unmarked) [Compound 51]: the inhibition at 2.5 µM is 1.8% in experiment [1] (Table 7); 9.8% in experiment [2] (Table 7, read-out: IIIQO); 9.8% in experiment [2] (Table 9, read-out: IIIQo); -5.5% in experiment [6] (setting [7]). Moreover, the SDH in experiment [1] (Table 8) and in experiment [1] (Table 9) was −1.8 in each case. Further, in experiment [2] (Table 8), the IIIQO is on record as −9.8. Also, the inhibition in experiment [3] (Table 7) was determined as 12%. In addition, the GPDH in experiment [3] (Table 8) and in experiment [3] (Table 9) was −12.0 in each case. The ΔΨm in experiment [4] (Table 8, glutamate) is reported as 0.9; in experiment [4] (Table 9, glutamate), 0.9. For the same compound, the IQ in experiment [5] (Table 7), in experiment [5] (Table 8) and in experiment [5] (Table 9) was −2.8 each time. The IF in experiment [6] (setting [8]) and in experiment [6] (setting [9]) was 5.5 in each case.

On to `CN(C)CCN(Cc1ccccc1)Cc1ccccc1Br` [Compound 23], for which the inhibition at 2.5 µM in experiment [1] (Table 7) is -1.7%; in experiment [2] (Table 7, read-out: IIIQO), 8.8%; in experiment [2] (Table 9, read-out: IIIQo) it was 8.8%; in experiment [6] (setting [10]), 21.1%; in experiment [6] (setting [7]), 21.1%. Moreover, the SDH in experiment [1] (Table 8) and in experiment [1] (Table 9) was 1.7 in each case. The same compound came in with an IIIQO in experiment [2] (Table 8) of −8.8. For the same compound, the inhibition in experiment [3] (Table 7) turned out to be 1%. Moreover, the GPDH in experiment [3] (Table 8) and in experiment [3] (Table 9) was −1.0 throughout. For the same compound, the ΔΨm in experiment [4] (Table 8, glutamate) is −1.5; in experiment [4] (Table 9, glutamate) it was −1.5. Further, the IQ in experiment [5] (Table 7), in experiment [5] (Table 8) and in experiment [5] (Table 9) was −2.7 in each case. Also, the IF in experiment [6] (setting [8]) and in experiment [6] (setting [9]) was −21.1 each time.

As to `O=[N+]([O-])c1ccc(Oc2ccc(S(=O)(=O)Nc3ccc(F)cc3)cc2)cc1` [Compound 84], the SDH in experiment [1] (Table 7), in experiment [1] (Table 8) and in experiment [1] (Table 9) was 0.7 each time. The IIIQO in experiment [2] (Table 7), in experiment [2] (Table 8) and in experiment [2] (Table 9) was 0.8 throughout. For the same compound, the GPDH in experiment [3] (Table 7), in experiment [3] (Table 8) and in experiment [3] (Table 9) was −0.2 each time. Also, the ΔΨm in experiment [4] (Table 8, glutamate) is −1.5; in experiment [4] (Table 9, glutamate), −1.5. In addition, the “% Reduction in ROS production (IQ)” value in experiment [5] is on record as −47.7%. The IQ in experiment [5] (Table 7), in experiment [5] (Table 8) and in experiment [5] (Table 9) was −47.7 each time. The IF in experiment [6] (Table 7, percent change in ROS from DMSO controls) is −1.4; in experiment [6] (setting [8]), −1.4; in experiment [6] (setting [9]) it was −1.4.

For the compound `Cc1ccc(S(=O)(=O)Nc2nnc(C)s2)cc1` [Compound 27], the inhibition at 2.5 µM in experiment [1] (Table 7) was -0.8%; in experiment [2] (Table 7, read-out: IIIQO), 0.1%; in experiment [2] (Table 9, read-out: IIIQo), 0.1%; in experiment [6] (setting [10]) it was 19.6%; in experiment [6] (setting [7]) it was 19.6%. In addition, the SDH in experiment [1] (Table 8) and in experiment [1] (Table 9) was 0.8 throughout. The IIIQO in experiment [2] (Table 8) was −0.1. Moreover, the inhibition in experiment [3] (Table 7) was found to be 0.4%. The GPDH in experiment [3] (Table 8) and in experiment [3] (Table 9) was −0.4 each time. For the same compound, the ΔΨm in experiment [4] (Table 8, glutamate) is reported as 1.6; in experiment [4] (Table 9, glutamate), 1.6. Further, the IQ in experiment [5] (Table 7), in experiment [5] (Table 8) and in experiment [5] (Table 9) was 0.0 in each case. Besides, the IF in experiment [6] (setting [8]) and in experiment [6] (setting [9]) was −19.6 each time.

As for `CC(C)(C)C1=NN(c2c(Cl)cc(Cl)cc2Cl)C(=O)C1` [Compound 3], the inhibition at 2.5 µM was 6.8% in experiment [1] (Table 7); -1% in experiment [2] (Table 7, read-out: IIIQO); -1% in experiment [2] (Table 9, read-out: IIIQo); -0.5% in experiment [6] (setting [7]). Further, the SDH in experiment [1] (Table 8) and in experiment [1] (Table 9) was −6.8 in each case. In addition, the IIIQO in experiment [2] (Table 8) is 1.0. Also, the inhibition in experiment [3] (Table 7) was 0.1%. For the same compound, the GPDH in experiment [3] (Table 8) and in experiment [3] (Table 9) was −0.1 in each case. Further, the ΔΨm was found to be 1.2 in experiment [4] (Table 8, glutamate) and 1.2 in experiment [4] (Table 9, glutamate). For the same compound, the “% Reduction in ROS production (IQ)” value in experiment [5] is reported as −52.4%. Further, the IQ in experiment [5] (Table 7), in experiment [5] (Table 8) and in experiment [5] (Table 9) was −52.4 throughout. In addition, the IF in experiment [6] (setting [8]) and in experiment [6] (setting [9]) was 0.5 in each case.

`O=C(Nc1ccc(Br)cc1)[C@@H]1C2C=CC(C2)[C@@H]1C(=O)O` (some centres unmarked) [Compound 28]: the inhibition at 2.5 µM in experiment [1] (Table 7) was -1.3%; in experiment [2] (Table 7, read-out: IIIQO), 2.5%; in experiment [2] (Table 9, read-out: IIIQo), 2.5%; in experiment [6] (setting [10]) it was 19.1%; in experiment [6] (setting [7]) it was 19.1%. Moreover, the SDH in experiment [1] (Table 8) and in experiment [1] (Table 9) was 1.3 each time. In addition, the IIIQO in experiment [2] (Table 8) is reported as −2.5. Besides, the inhibition in experiment [3] (Table 7) came to 2.3%. Further, the GPDH in experiment [3] (Table 8) and in experiment [3] (Table 9) was −2.3 throughout. Besides, the ΔΨm is listed as −1.3 in experiment [4] (Table 8, glutamate) and −1.3 in experiment [4] (Table 9, glutamate). The IQ in experiment [5] (Table 7), in experiment [5] (Table 8) and in experiment [5] (Table 9) was 0.2 throughout. For the same compound, the IF in experiment [6] (setting [8]) and in experiment [6] (setting [9]) was −19.1 each time.

As for `COc1ccccc1/C=C/c1nc(O)nc(O)c1[N+](=O)[O-]` [Compound 16], the inhibition at 2.5 µM is -4.2% in experiment [1] (Table 7); -6.6% in experiment [2] (Table 7, read-out: IIIQO); -6.6% in experiment [2] (Table 9, read-out: IIIQo); 26.7% in experiment [6] (setting [10]); 26.7% in experiment [6] (setting [7]). The SDH in experiment [1] (Table 8) and in experiment [1] (Table 9) was 4.2 each time. In experiment [2] (Table 8), this compound had an IIIQO of 6.6. Further, the inhibition in experiment [3] (Table 7) was found to be 0.6%. Moreover, the GPDH in experiment [3] (Table 8) and in experiment [3] (Table 9) was −0.6 in each case. The ΔΨm is on record as −0.3 in experiment [4] (Table 8, glutamate) and −0.3 in experiment [4] (Table 9, glutamate). Moreover, the IQ in experiment [5] (Table 7), in experiment [5] (Table 8) and in experiment [5] (Table 9) was −5.4 in each case. The IF in experiment [6] (setting [8]) and in experiment [6] (setting [9]) was −26.7 throughout.
